According to patent US8377942B2, “Isoxazolines derivatives and their use as pesticide” (Novartis AG, priority 2008, dated 2013):

Tested on: Rhipicephalus sanguineus nymphs
Experiment: Activity in vivo against Rhipicephalus sanguineus nymphs on Mongolian gerbils (spray application)
Conditions: Dose 100 mg/kg, tick number reduction vs placebo (Abbot's formula), 7 days after infestation
Description: 3. Activity In Vivo Against Rhipicephalus sanguineus Nymphs on Mongolian Gerbils (Meriones unguiculatus) (Spray Application) On day 0, gerbils are treated with the test compound at a given dose by spray application. On day +1, the animals are infested with nymphs of R. sangineus. Ticks are left on the animals until full repletion. Seven days after infestation nymphs dropped off fully engorged are collected and counted. Efficacy in killing is expressed as a tick number reduction in comparison with a placebo treated group using the Abbot's formula.

Q: How did the “Efficacy (%)” value turn out when `O=C(NCc1cn(-c2ccc(C3=NOC(c4cc(Cl)cc(Cl)c4)(C(F)(F)F)C3)c3ccccc23)nn1)c1ccncc1` (stereo not drawn) [Compound 1.61, N-(1-{4-[5-(3,5-dichloro-phenyl)-5-trifluoromethyl-4,5-dihydro-isoxazol-3-yl]-naphthalen-1-yl}-1H-[1,2,3]triazol-4-ylmethyl)-isonicotinamide] was run?
A: Its value is 96%.

Q: For `FC(F)(F)C1(c2cc(Cl)cc(Cl)c2)CC(c2ccc(-n3cncn3)c3ccccc23)=NO1` (stereo not drawn) [Compound 1.1, 1-{4-[5-(3,5-dichloro-phenyl)-5-trifluoromethyl-4,5-dihydro-isoxazol-3-yl]-naphthalen-1-yl}-1H-[1,2,4]triazole], which “Efficacy (%)” value is on record?
A: The value was 85%.

Q: Which “Efficacy (%)” value does the source give for `FC(F)(F)C1(c2cc(Cl)cc(Cl)c2)CC(c2ccc(-c3cn(Cc4ccccn4)nn3)c3ccccc23)=NO1` (stereo not drawn) [Compound 1.27, 2-(4-{4-[5-(3,5-dichloro-phenyl)-5-trifluoromethyl-4,5-dihydro-isoxazol-3-yl]-naphthalen-1-yl}-[1,2,3]triazol-1-ylmethyl)-pyridine] here?
A: Its value is 79%.
